Assay results: patent US7612211B2, “Benzimidazole TRPV1 inhibitors” (Janssen Pharmaceutica N.V., priority 2006, dated 2009)

Key:
male Sprague-Dawley rats = test: CFA-induced inflammatory pain, reversal of thermal hyperalgesia (radiant heat paw stimulator); format: in vivo; conditions: Rattus norvegicus, po, 10 mg/kg orally, 24 h after CFA, maximal during the 300 min test, read-out: % Reversal (maximal percent reversal of hypersensitivity)
Protocol: Compounds of the present invention were tested in animal models of inflammation and inflammatory pain. To assess the ability of test compounds to reverse thermal hyperalgesia, baseline response latencies on a radiant heat (RH) paw stimulator were obtained before an intraplantar injection of 100 μL (1 μg/μL) CFA (1:1 CFA:saline) in male Sprague-Dawley rats. Only withdrawal responses that were quick hind paw movements (with or without licking of the hind paw) were recorded. Paw movements associated with locomotion or a shifting of weight were not considered a withdrawal response. The stimulus intensity that produced 10-15 sec baseline withdrawal latencies was used and a maximum cutoff of 20 sec was imposed. Hypersensitivity was evaluated 24 h after CFA.
Following the post-inflammogen latency assessment, rats were orally dosed (2.5 mL/kg) with test compound (10 mg/kg) or vehicle (20% hydroxypropyl beta cyclodextran). To determine the time of peak effect, latencies were redetermined 30, 60, 100, 180 and 300 min after compound administration.
Data are presented as the maximal percent reversal of hypersensitivity obtained during the 300 min test, which was calculated for each animal according to the formula: % reversal=100%×(treatment response−post-inflammogen response)/(pre-inflammogen response−post-inflammogen response)

hTRPV1 [1] = biological target: T1, hTRPV1 (Homo sapiens, UniProt Q8NER1); test: Human TRPV1 (hTRPV1) functional assay, FLIPR intracellular Ca2+, capsaicin challenge; format: cell-based; conditions: HEK293 cells expressing hTRPV1, capsaicin 0.030 μM challenge; for IC50: derived from a variety of test concentrations, read-out: IC50 value (symbol c); for inhibition at 0.5 µM: test concentration of 0.5 μm, read-out: percent inhibition (symbol a)
T1 construct: expressed in transfected cells; host or cells: HEK293
Outline: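 HEK293 cells expressing the channel, loaded with Calcium 3 dye, were exposed to compounds for 5 min before capsaicin 0.030 μM (~80% maximal). FLIPR Ca2+ read; IC50/EC50 from quadruplicate concentration-response, or percent inhibition at 0.5 μm or 0.2 μm.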

hTRPV1 [2] = biological target: T1, hTRPV1; test: Human TRPV1 [3H]RTX binding assay (membranes of transfected HEK293 cells); conditions: inhibition of [3H]RTX binding
Protocol: Compounds of the present invention were tested for their ability to inhibit the binding of [^3H] RTX to hTRPV1 receptors in a [^3H] RTX binding assay as previously described (See, PCT International Application WO02/33411A1 and Elfrida G. R. et al., J. Pharmacol. Exp. Ther., 2002, 300(1): 9-17.)
HEK293 cells were transfected with hTRPV1 vanilloid receptors and washed with Hank's balanced Salt Solution, dissociated with cell dissociation buffer (Sigma), and then centrifuged at 1000×g for 5 min. Cell pellets were homogenized in cold 20 mM HEPES buffer (pH=7.4), containing 5.8 mM NaCl, 320 mM sucrose, 2 mM MgCl2, 0.75 CaCl2 and 5 mM KCl and centrifuged at 1000×g for 15 min. The resultant supernatant was then centrifuged at 40,000×g for 15 min. The pelleted membranes were stored in a freezer at −80° C.
Approximately 120 μg protein/mL from membranes were incubated with indicated concentrations of [^3H]RTX in 0.5 mL of the HEPES buffer (pH 7.4) containing 0.25 mg/mL fatty acid-free bovine serum albumin at 37° C. for 60 min. […] Bound radioactivity was quantified by scintillation counting. Non-specific binding was measured in the presence of 200 nM unlabeled RTX.
Data were calculated according to the equation: % inhibition=100%×[(total binding−binding)/(total binding−non specific binding)]. Ki values were calculated using a Prism program.

T1 sequence (Q8NER1 whole entry): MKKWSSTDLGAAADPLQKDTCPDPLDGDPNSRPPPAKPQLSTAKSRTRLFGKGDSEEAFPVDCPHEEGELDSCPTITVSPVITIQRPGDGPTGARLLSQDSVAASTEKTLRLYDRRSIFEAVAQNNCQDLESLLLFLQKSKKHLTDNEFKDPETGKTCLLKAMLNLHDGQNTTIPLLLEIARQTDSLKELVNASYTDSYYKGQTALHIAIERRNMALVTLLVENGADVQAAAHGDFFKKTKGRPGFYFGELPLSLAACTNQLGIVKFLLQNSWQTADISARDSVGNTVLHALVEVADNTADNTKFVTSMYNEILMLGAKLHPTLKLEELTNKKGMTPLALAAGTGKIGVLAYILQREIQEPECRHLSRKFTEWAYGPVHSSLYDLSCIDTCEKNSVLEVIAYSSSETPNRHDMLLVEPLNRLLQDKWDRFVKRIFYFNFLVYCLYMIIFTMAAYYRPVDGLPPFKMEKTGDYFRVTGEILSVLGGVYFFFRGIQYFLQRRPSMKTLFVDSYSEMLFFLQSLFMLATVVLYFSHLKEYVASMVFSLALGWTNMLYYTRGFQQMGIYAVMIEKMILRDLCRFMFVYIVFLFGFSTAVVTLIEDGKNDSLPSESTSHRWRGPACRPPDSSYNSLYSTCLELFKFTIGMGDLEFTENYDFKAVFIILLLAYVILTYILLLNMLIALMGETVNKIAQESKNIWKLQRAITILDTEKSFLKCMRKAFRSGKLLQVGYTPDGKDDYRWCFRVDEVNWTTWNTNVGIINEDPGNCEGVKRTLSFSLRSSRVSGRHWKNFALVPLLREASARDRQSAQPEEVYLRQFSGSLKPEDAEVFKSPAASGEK

IC50 (hTRPV1 [1]) [nM]	inhibition at 0.5 µM (hTRPV1 [1]) [%]	Ki (hTRPV1 [2]) [nM]	inhibition at 0.2 µM (hTRPV1 [1]; test concentration of 0.2 μm, read-out: percent inhibition (symbol b)) [%]	Compound	inhibition in vivo at 10 mg/kg (male Sprague-Dawley rats) [%]
3	100	2.7		NS(=O)(=O)c1ccccc1-c1ccc2[nH]c(COc3ccc(C(F)(F)F)cc3)nc2c1 [Cpd 1, 2-[2-(4-trifluoromethyl-phenoxymethyl)-1H-benzoimidazol-5-yl]-benzenesulfonamide]	85
4.9			97	CS(=O)(=O)c1ccccc1-c1ccc2[nH]c(COc3ccc(S(=O)(=O)C(F)(F)F)cc3)nc2c1 [Cpd 86, 5-(2-methanesulfonyl-phenyl)-2-(4-trifluoromethanesulfonyl-phenoxymethyl)-1H-benzoimidazole]	100
2.1	94			CS(=O)(=O)c1ccccc1-c1ccc2[nH]c(COc3ccc(C(F)(F)F)cc3)nc2c1 [Cpd 98, 5-(2-methanesulfonyl-phenyl)-2-(4-trifluoromethyl-phenoxymethyl)-1H-benzoimidazole]	30
10	94			CS(=O)(=O)Nc1ccccc1-c1ccc2[nH]c(COc3ccc(C(F)(F)F)cc3)nc2c1 [Cpd 101, N-{2-[2-(4-trifluoromethyl-phenoxymethyl)-1H-benzoimidazol-5-yl]-phenyl}-methanesulfonamide]	22
